The values that follow come from patent publication US8247533B2, “Beta helical peptide structures stable in aqueous and non-aqueous media” (The United States of America, as represented by the …, priority 2007, dated 2012).

One data set can be described thus: physchem. As to conditions: aqueous medium. From the text: (§1) The water solubility of these peptides/peptidometrics is defined by the correct choice of sidechain functionalities.
Data set [1] is described as follows: Circular dichroism (CD) thermal denaturation study. The class given is physicochemical.
From the text: as §1

Data set [2] in a line: Solubility in organic solvents (purification work). Format: physicochemical. The protocol:
However, dissolution of the crude peptide in HFIP at a concentration of about 80 mg mL^−1, followed by twofold dilution with HFA.3H2O, furnished a solution that was suitable for use in RP-HPLC.
The next attempt to repurify fraction a of the RP-HPLC purified material using gravity-driven GPC on Sephadex LH-20. These efforts were complicated by the lack of a suitable pure solvent that would satisfy the following criteria: (1) the solvent must be able to dissolve the partially purified peptide, and (2) the solvent must be sufficiently polar to prevent irreversible adsorption of the peptide to the LH-20 stationary phase. One choice was CHCl3, in which the peptide is soluble to about. 20 mM; CHCl3, however, is a nonpolar solvent. Moreover, CHCl3 is denser than LH-20 and therefore inconvenient for GPC using gravity-driven flow. However, the solvent mixture CHCl3/MeOH (65:35) satisfies both of the criteria stated above; in addition, this mixture is less dense than LH-20. A single pass of fraction a through a 2.5×55 cm column of LH-20 in CHCl3/MeOH gave material that was ≧95% pure as estimated by 1D ^1H NMR (FIG. 9c). Furthermore, even fraction b of the RP-HPLC-purified material, which contained about 30% contaminant (FIG. 9b), could be purified in this manner. […]

≈ marks a conversion by molar mass, not a printed value. Peptide text beside a SMILES is read from it.

The molecule `CC(C)C[C@H]1NC(=O)CNC(=O)[C@@H]2CCCN2C(=O)[C@@H](C)NC(=O)[C@H]([C@@H](C)O)NC(=O)[C@@H](CC(C)C)NC(=O)[C@H]([C@@H](C)O)NC(=O)[C@@H](C(C)C)NC(=O)[C@H](CCCCN)NC(=O)[C@@H](CC(C)C)NC(=O)[C@H](CCC(=O)O)NC(=O)[C@@H](C)NC(=O)CNC(=O)[C@@H]2CCCN2C(=O)[C@@H](C(C)C)NC(=O)[C@H]([C@@H](C)O)NC(=O)[C@@H](C)NC(=O)[C@H]([C@@H](C)O)NC(=O)[C@@H](CC(C)C)NC(=O)[C@H](CCCNC(=N)N)NC(=O)[C@@H](C(C)C)NC(=O)[C@H](CCC(=O)O)NC1=O` [Peptide 1] (HELM PEPTIDE1{[dL].E.[dV].R.[dL].T.[dA].T.[dV].P.G.[dA].E.[dL].K.[dV].T.[dL].T.[dA].P.G}$PEPTIDE1,PEPTIDE1,1:R1-22:R2$$$V2.0) registered a solubility in the data set “physchem” of over 10 mM. Besides, the “change of beta-hairpin structure (CD) with temperature” value in data set [1] (aqueous state, 100 mM phosphate buffered saline buffer, about 5° C. to about 95° C.) is “does not change”. Besides, in data set [1] (in methanol and trifluoroethanol), the “temperature up to which helical structure resists thermal denaturation (CD)” value is “up to 85 °C”.
In data set [2] (CHCl3, partially purified peptide), `CC(C)[C@@H]1NC(=O)CNC(=O)[C@H]2CCCN2C(=O)[C@H](C(C)C)NC(=O)[C@@H](C(C)C)NC(=O)[C@H](C(C)C)NC(=O)[C@@H](C(C)C)NC(=O)[C@H](C(C)C)NC(=O)[C@@H](C(C)C)NC(=O)[C@H](C(C)C)NC(=O)[C@@H](C(C)C)NC(=O)[C@H](C(C)C)NC(=O)CNC(=O)[C@H]2CCCN2C(=O)[C@H](C(C)C)NC(=O)[C@@H](C(C)C)NC(=O)[C@H](C(C)C)NC(=O)[C@@H](C(C)C)NC(=O)[C@H](C(C)C)NC(=O)[C@@H](C(C)C)NC(=O)[C@H](C(C)C)NC(=O)[C@@H](C(C)C)NC1=O` [Peptide 3, cyclo{[(L-Val-D-Val)4-(L-Val-D-Pro-Gly)]2-}] (HELM PEPTIDE1{V.[dP].G.V.[dV].V.[dV].V.[dV].V.[dV].V.[dP].G.V.[dV].V.[dV].V.[dV].V.[dV]}$PEPTIDE1,PEPTIDE1,1:R1-22:R2$$$V2.0) showed a solubility of about 20 mM (≈ 41.9 mg/mL). Besides, the “solubility in solvents typically used for RP-HPLC” value in data set [2] (crude peptide, MeOH, EtOH, i-PrOH, and CH3CN) is “insoluble”.

One may read the solubility as how much of the substance goes into solution per volume.
